Measured values published in ChEMBL document CHEMBL1201862, “PubChem BioAssay data set” (2004).
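Growth conditions: 96-well plates. Treatment: test compound, 48 hours, 5 concentrations. Analysis: linear interpolation between bracketing concentrations; unreached endpoints set to highest concentration. Here, GI50 denotes the concentration required for 50% inhibition of growth.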 Activity calls are given as the source filed them. Cut-off read from the data, not from the text of the source: active = GI50 up to about 1.1 µM and inactive = higher.

Assays:
Assay in all cases: NCI tumour cell line growth inhibition, 48 h
OVCAR-5 = test system: OVCAR-5
OVCAR-8 = test system: OVCAR-8
OVCAR-4 = test system: OVCAR-4
UACC-257 = test system: UACC-257
MOLT-4 = test system: MOLT-4
HL-60 = test system: HL-60
KM12 = test system: KM12
SN12C = test system: SN12C
EKVX = test system: EKVX
CCRF-CEM = test system: CCRF-CEM
BT-549 = test system: BT-549
HCT-116 = test system: HCT-116
HCT-15 = test system: HCT-15
SF-539 = test system: SF-539
COLO 205 = test system: COLO 205
MCF7 = test system: MCF7
NCI-H226 = test system: NCI-H226
SR = test system: SR
PC-3 = test system: PC-3

Structure (SMILES)	GI50 (OVCAR-5)	GI50 (OVCAR-8)	GI50 (OVCAR-4)	GI50 (UACC-257)	GI50 (MOLT-4)	GI50 (HL-60)	GI50 (KM12)	GI50 (SN12C)	GI50 (EKVX)	GI50 (CCRF-CEM)	GI50 (BT-549)	GI50 (HCT-116)	GI50 (HCT-15)	GI50 (SF-539)	GI50 (COLO 205)	GI50 (MCF7)	GI50 (NCI-H226)	GI50 (SR)	GI50 (PC-3)
CCOC(=O)c1cc(-c2ccc(OC)c(OC)c2)c[nH]1	> 10 µM (inactive)	> 10 µM (inactive)	> 10 µM (inactive)	> 10 µM (inactive)	> 10 µM (inactive)	> 10 µM (inactive)	> 10 µM (inactive)	> 10 µM (inactive)	> 10 µM (inactive)	> 10 µM (inactive)	> 10 µM (inactive)	> 10 µM (inactive)	> 10 µM	> 10 µM (inactive)	> 10 µM (inactive)	> 10 µM (inactive)	> 10 µM (inactive)	> 10 µM (inactive)	> 10 µM (inactive)
Cc1cc2c(cc1-c1cc3c(cc1C)C(C(C)C)=C(O)C(=O)/C3=C\Nc1c(C)n(C)n(-c3ccccc3)c1=O)/C(=C/Nc1c(C)n(C)n(-c3ccccc3)c1=O)C(=O)C(O)=C2C(C)C	> 100 µM (inactive)	82 µM (inactive)	> 100 µM (inactive)	> 100 µM (inactive)	41.2 µM (inactive)	33.9 µM (inactive)	71.6 µM (inactive)	> 100 µM (inactive)	76.9 µM (inactive)	33 µM (inactive)	> 100 µM (inactive)	> 100 µM (inactive)	> 100 µM	48.1 µM (inactive)	82.6 µM (inactive)	38.8 µM (inactive)	98.2 µM (inactive)	39.2 µM (inactive)	66.2 µM (inactive)
CC(C)(C)OC(=O)N(CCCCN(CCCNC(=O)C(F)(F)F)C(=O)OC(C)(C)C)CCCNC(=O)C(F)(F)F	> 100 µM (inactive)	> 100 µM (inactive)	> 100 µM (inactive)	> 100 µM (inactive)	71.9 µM (inactive)	60.3 µM (inactive)	> 100 µM (inactive)	> 100 µM (inactive)	> 100 µM (inactive)	> 100 µM (inactive)	> 100 µM (inactive)	> 100 µM (inactive)	> 100 µM	> 100 µM (inactive)	> 100 µM (inactive)	> 100 µM (inactive)	> 100 µM (inactive)	> 100 µM (inactive)	> 100 µM (inactive)
O=C1C=CC(=O)c2c1ccc1c3ccccc3n(-c3ccccc3[N+](=O)[O-])c21	17.3 µM (inactive)	2.03 µM (inactive)	2.59 µM (inactive)	3.56 µM (inactive)	0.543 µM (active)	1.06 µM (active)	8.97 µM (inactive)	4.01 µM (inactive)	8.22 µM (inactive)	0.181 µM (active)	4.97 µM (inactive)	2.79 µM (inactive)	2.96 µM	22.5 µM (inactive)	2.07 µM (inactive)	3.3 µM (inactive)	20.2 µM (inactive)	0.444 µM (active)	3.65 µM (inactive)
CN(C)CCNC(=O)c1cccc2ccc(-c3ccc(O)cc3)nc12	1.71 µM (inactive)	1.38 µM (inactive)	2.43 µM (inactive)	2.61 µM (inactive)	0.238 µM (active)	0.847 µM (active)	4.54 µM (inactive)	2.16 µM (inactive)	8.36 µM (inactive)	1.35 µM (inactive)	6.82 µM (inactive)	0.698 µM (active)	2.75 µM	2.75 µM (inactive)	3.33 µM (inactive)	0.859 µM (active)	1.93 µM (inactive)	2.47 µM (inactive)	2.37 µM (inactive)
CCOC(=O)/C(C#N)=C/c1ccc2c(c1)CC1(C2)Cc2cc(CC)c(C(C)O)cc2C1 (stereo not given)	33 µM (inactive)	15 µM (inactive)	9.59 µM (inactive)	15.8 µM (inactive)	4.59 µM (inactive)	3.03 µM (inactive)	19.6 µM (inactive)	14.2 µM (inactive)	57.5 µM (inactive)	4.61 µM (inactive)	10.8 µM (inactive)	4.27 µM (inactive)	5.24 µM	9.82 µM (inactive)	25.2 µM (inactive)	5.18 µM (inactive)	19.3 µM (inactive)	5.05 µM (inactive)	10.2 µM (inactive)
CC(=O)c1c2c(c3ccccc3c1O)O[C@@H]1OCC[C@H]21	> 100 µM (inactive)	> 100 µM (inactive)	53.3 µM (inactive)	> 100 µM (inactive)	> 100 µM (inactive)	> 100 µM (inactive)	> 100 µM (inactive)	> 100 µM (inactive)	> 100 µM (inactive)	> 100 µM (inactive)	48.4 µM (inactive)	> 100 µM (inactive)	> 100 µM	> 100 µM (inactive)	> 100 µM (inactive)	30 µM (inactive)	> 100 µM (inactive)	> 100 µM (inactive)	> 100 µM (inactive)
CCN(CC)CCNc1ccc2ncn3c4cc(OC)c(OC)c(O)c4c(=O)c1c23	21.5 µM (inactive)	5.3 µM (inactive)	4.9 µM (inactive)	22.9 µM (inactive)	0.524 µM (active)	11 µM (inactive)	7 µM (inactive)	6.47 µM (inactive)	16 µM (inactive)	0.897 µM (active)	16.3 µM (inactive)	0.556 µM (active)	9.91 µM	9.06 µM (inactive)	1.33 µM (inactive)	2.88 µM (inactive)	12.3 µM (inactive)	1.29 µM (inactive)	6.52 µM (inactive)
CCCCC1Cc2cc(O)ccc2-c2n1c1cc(O)ccc1[n+]2C.CCCCC1Cc2cc(O)ccc2-c2n1c1ccc(O)cc1[n+]2C (stereo not given)	63.5 µM (inactive)	28.3 µM (inactive)	27.7 µM (inactive)	11.6 µM (inactive)	49.1 µM (inactive)	26.1 µM (inactive)	28.2 µM (inactive)	5.58 µM (inactive)	0.476 µM (active)	9.59 µM (inactive)	19 µM (inactive)	36.9 µM (inactive)	51.8 µM	40.3 µM (inactive)	18.3 µM (inactive)	19 µM (inactive)	41 µM (inactive)	56.5 µM (inactive)	49.5 µM (inactive)
Nc1ncnc2oc(C3OC(COC(=O)c4ccccc4)C(OC(=O)c4ccccc4)C3OC(=O)c3ccccc3)nc12 (stereo not given)	> 100 µM (inactive)	> 100 µM (inactive)	> 100 µM (inactive)	> 100 µM (inactive)	> 100 µM (inactive)	> 100 µM (inactive)	> 100 µM (inactive)	> 100 µM (inactive)	> 100 µM (inactive)	> 100 µM (inactive)	> 100 µM (inactive)	> 100 µM (inactive)	> 100 µM	> 100 µM (inactive)	> 100 µM (inactive)	> 100 µM (inactive)	> 100 µM (inactive)	> 100 µM (inactive)	98.6 µM (inactive)
